Patent US20250115598A1 (Anaxis Pharma Pty Ltd, priority 2021, published 2025)

Experiments:
[1] = system: Immortalised Mouse Dermal Fibroblasts (MDFs); test: Cellular assay: inhibition of TSI induced necroptosis, CellTitre-Glo viability; conditions: Mus musculus, Fibroblast; MDF, 3 hours TSI cocktail, Table 27; read-out: Inhibition of TSI-induced necroptosis (IC50 cell-based assay) in MDF
Procedure, shortened: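 Immortalised mouse dermal fibroblasts (2200 cells/well) pretreated 30 min with compound, 10-point 1:3 series from 36 μM, 0.3% DMSO. Then 3 h at 37° C. with TNF (100 ng/ml), Smac mimetic (500 nM) and IDN-6556 (10 μM). CellTiter-Glo luminescence normalised to DMSO (100%) and DMSO+TSI (0%); IC50 from 4-parameter logistic fit.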

human MLKL (full length) = human MLKL (full length) (Homo sapiens (Human), UniProt Q8NB16); test: KINOMEscan binding assay, human MLKL (full length); conditions: hMLKL, Table 25; read-out: MLKL (KD)
Chain of human MLKL (full length) (Q8NB16 whole entry): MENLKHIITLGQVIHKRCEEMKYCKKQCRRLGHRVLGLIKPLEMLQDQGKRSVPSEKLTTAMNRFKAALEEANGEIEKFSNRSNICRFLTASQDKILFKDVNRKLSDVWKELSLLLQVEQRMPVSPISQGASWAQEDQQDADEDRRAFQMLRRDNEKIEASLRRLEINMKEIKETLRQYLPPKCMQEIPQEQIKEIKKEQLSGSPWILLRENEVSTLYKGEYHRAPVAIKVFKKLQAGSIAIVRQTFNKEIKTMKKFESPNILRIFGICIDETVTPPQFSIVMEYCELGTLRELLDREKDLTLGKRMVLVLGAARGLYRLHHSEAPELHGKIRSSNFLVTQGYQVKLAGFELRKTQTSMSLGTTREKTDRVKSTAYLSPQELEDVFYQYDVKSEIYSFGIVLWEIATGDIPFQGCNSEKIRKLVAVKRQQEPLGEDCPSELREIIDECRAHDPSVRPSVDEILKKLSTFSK
Procedure, shortened: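 KINOMEscan competition binding using kinase-tagged T7 phage or HEK-293-produced DNA-tagged protein captured on ligand beads, with eluted protein quantified by qPCR. Compounds were run as an 11-point 3-fold series, top 30,000 nM, in 1% DMSO. Kd was fitted with the Hill equation, slope fixed at −1.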

endogenous MLKL in MDF = endogenous MLKL in MDF (Mus musculus (Mouse), UniProt Q9D2Y4); test: Degradation assay: endogenous MLKL in MDF (western blot); conditions: MDF cells, 24 h incubation with compound, MLKL adjusted for loading with GAPDH, normalized to DMSO only control, read-out: Degradation of endogenous MLKL in MDF (DC50 cell-based assay)
Chain of endogenous MLKL in MDF (Q9D2Y4 whole entry): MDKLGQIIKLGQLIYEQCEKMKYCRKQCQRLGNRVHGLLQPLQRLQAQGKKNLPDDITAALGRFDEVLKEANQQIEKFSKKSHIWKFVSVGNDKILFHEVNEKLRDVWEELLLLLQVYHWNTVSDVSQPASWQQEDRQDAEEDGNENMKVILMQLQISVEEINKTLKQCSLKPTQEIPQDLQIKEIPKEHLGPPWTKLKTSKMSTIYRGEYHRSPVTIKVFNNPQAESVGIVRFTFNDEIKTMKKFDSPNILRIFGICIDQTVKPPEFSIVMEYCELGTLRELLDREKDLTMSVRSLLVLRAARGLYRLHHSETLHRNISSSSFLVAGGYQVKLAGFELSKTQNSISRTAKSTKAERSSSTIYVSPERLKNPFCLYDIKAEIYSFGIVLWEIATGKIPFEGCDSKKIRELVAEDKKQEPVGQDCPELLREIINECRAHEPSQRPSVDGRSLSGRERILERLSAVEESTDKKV
Procedure, shortened: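 MDF (seeded the day before) or U937 cells were treated 24 h at 37 °C, 10% CO2 with compound at 10, 2, 0.4, 0.08 and 0.016 μM final. Endogenous MLKL was quantified by western blot (anti-MLKL 3H1), normalized to GAPDH. Percent degradation was taken relative to DMSO control.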

| Kd (human MLKL (full length)) [nM] | DC50 (endogenous MLKL in MDF) [nM] | Compound | IC50 [1] [nM] |
| --- | --- | --- | --- |
| < 10 | < 1000 | CCS(=O)(=O)Nc1ccc(-c2nn(C)c3c(-c4cnn(C5CCN(C(=O)[C@H]6C[C@H](Nc7cccc8c7C(=O)N(C7CCC(=O)NC7=O)C8=O)C6)CC5)c4)cnc(N)c23)cc1F (stereo partly drawn) [Compound 1102, N-{4-[4-amino-1-methyl-7-(1-{1-[(trans)-3-{[2-(2,6-dioxopiperidin-3-yl)-1,3-dioxo-2,3-dihydro-1H-isoindol-4-yl]amino}cyclobutanecarbonyl]piperidin-4-yl}-1H-pyrazol-4-yl)-1H-pyrazolo[4,3-c]pyridin-3-yl]-2-fluorophenyl}ethane-1-sulfonamide] | < 1000 |
| 10 to 1000 | < 1000 | C[C@H](Oc1cc(-c2nn(C)c3c(-c4cnn(C5CCN(C(=O)[C@H]6C[C@H](Nc7cccc8c7C(=O)N(C7CCC(=O)NC7=O)C8=O)C6)C6(CC6)C5)c4)cnc(N)c23)ccc1NS(=O)(=O)C(F)F)c1ccc(F)cc1 (stereo partly drawn) [Compound 1107, N-{4-[4-amino-1-methyl-7-(1-{4-[(1r,3r)-3-{[2-(2,6-dioxopiperidin-3-yl)-1,3-dioxo-2,3-dihydro-1H-isoindol-4-yl]amino}cyclobutanecarbonyl]-4-azaspiro[2.5]octan-7-yl}-1H-pyrazol-4-yl)-1H-pyrazolo[4,3-c]pyridin-3-yl]-2-[(1S)-1-(4-fluorophenyl)ethoxy]phenyl}-1,1-difluoromethanesulfonamide] | < 1000 |
| < 10 | < 1000 | C[C@H](Oc1cc(-c2nn(C)c3c(-c4cnn(C5CCN(C(=O)[C@]6(F)C[C@H](Nc7cccc8c7C(=O)N(C7CCC(=O)NC7=O)C8=O)C6)CC5)c4)cnc(N)c23)ccc1NS(=O)(=O)C(F)F)c1ccc(F)cc1 (stereo partly drawn) [Compound 1110, N-{4-[4-amino-1-methyl-7-(1-{1-[(trans)-3-{[2-(2,6-dioxopiperidin-3-yl)-1,3-dioxo-2,3-dihydro-1H-isoindol-4-yl]amino}-1-fluoro-cyclobutanecarbonyl]piperidin-4-yl}-1H-pyrazol-4-yl)-1H-pyrazolo[4,3-c]pyridin-3-yl]-2-[(1S)-1-(4-fluorophenyl)ethoxy]phenyl}-1,1-difluoromethanesulfonamide] | < 1000 |
| 10 to 1000 | < 1000 | C[C@H](Oc1cc(-c2nn(C)c3c(-c4cnn(C5CCN(C(=O)[C@]6(F)C[C@@H](Nc7cccc8c7C(=O)N(C7CCC(=O)NC7=O)C8=O)C6)CC5)c4)cnc(N)c23)ccc1NS(=O)(=O)C(F)F)c1ccc(F)cc1 (stereo partly drawn) [Compound 1111, N-{4-[4-amino-1-methyl-7-(1-{1-[(cis)-3-{[2-(2,6-dioxopiperidin-3-yl)-1,3-dioxo-2,3-dihydro-1H-isoindol-4-yl]amino}-1-fluorocyclobutane-carbonyl]piperidin-4-yl}-1H-pyrazol-4-yl)-1H-pyrazolo[4,3-c]pyridin-3-yl]-2-[(1S)-1-(4-fluorophenyl)ethoxy]phenyl}-1,1-difluoro-methanesulfonamide] | < 1000 |
| < 10 | < 1000 | C[C@H](Oc1cc(-c2nn(C)c3c(-c4cnn(C5CCN(C(=O)[C@H]6C[C@H](Nc7cccc8c7C(=O)N(C7CCC(=O)NC7=O)C8=O)C6)C(C)(C)C5)c4)cnc(N)c23)ccc1NS(=O)(=O)C(F)F)c1ccc(F)cc1 (stereo partly drawn) [Compound 1116, N-{4-[4-amino-7-(1-{2,2-dimethyl-1-[(trans)-3-{[2-(2,6-dioxopiperidin-3-yl)-1,3-dioxo-2,3-dihydro-1H-isoindol-4-yl]amino}cyclobutanecarbonyl]piperidin-4-yl}-1H-pyrazol-4-yl)-1-methyl-1H-pyrazolo[4,3-c]pyridin-3-yl]-2-[(1S)-1-(4-fluorophenyl)ethoxy]phenyl}-1,1-difluoromethanesulfonamide] | 1000 to 10000 |
| < 10 | < 1000 | C[C@H](Oc1cc(-c2nn(C)c3c(-c4cnn(C5CCN(C(=O)C6CC(N(C)c7cccc8c7C(=O)N(C7CCC(=O)NC7=O)C8=O)C6)CC5)c4)cnc(N)c23)ccc1NS(=O)(=O)C(F)F)c1ccc(F)cc1 (stereo partly drawn) [Compound 1119, N-{4-[4-amino-1-methyl-7-(1-{1-[(trans)-3-{[2-(2,6-dioxopiperidin-3-yl)-1,3-dioxo-2,3-dihydro-1H-isoindol-4-yl](methyl)amino}cyclobutanecarbonyl]piperidin-4-yl}-1H-pyrazol-4-yl)-1H-pyrazolo[4,3-c]pyridin-3-yl]-2-[(1S)-1-(4-fluorophenyl)ethoxy]phenyl}-1,1-difluoromethanesulfonamide] | < 1000 |

The remaining lines, values behind:

| Compound | Kd (human MLKL (full length)) [nM] | DC50 (endogenous MLKL in MDF) [nM] | IC50 [1] [nM] |
| --- | --- | --- | --- |
| C[C@H](Oc1cc(-c2nn(C)c3c(-c4cnn(C5CCN(C(=O)N6CCN(c7cccc8c7C(=O)N(C7CCC(=O)NC7=O)C8=O)CC6)CC5)c4)cnc(N)c23)ccc1NS(=O)(=O)C(F)F)c1ccc(F)cc1 (stereo partly drawn) [Compound 1103, N-(4-{4-amino-7-[1-(1-{4-[2-(2,6-dioxopiperidin-3-yl)-1,3-dioxo-2,3-dihydro-1H-isoindol-4-yl]piperazine-1-carbonyl}piperidin-4-yl)-1H-pyrazol-4-yl]-1-methyl-1H-pyrazolo[4,3-c]pyridin-3-yl}-2-[(1S)-1-(4-fluorophenyl)ethoxy]phenyl)-1,1-difluoromethanesulfonamide] | < 10 | < 1000 | < 1000 |
| C[C@H](Oc1cc(-c2nn(C)c3c(-c4cnn(C5CCN(C(=O)OCC6CCN(c7cccc8c7C(=O)N(C7CCC(=O)NC7=O)C8=O)CC6)CC5)c4)cnc(N)c23)ccc1NS(=O)(=O)C(F)F)c1ccc(F)cc1 (stereo partly drawn) [Compound 1105, {1-[2-(2,6-dioxopiperidin-3-yl)-1,3-dioxo-2,3-dihydro-1H-isoindol-4-yl]piperidin-4-yl}methyl4-(4-{4-amino-3-[4-(difluoromethanesulfonamido)-3-[(1 S)-1-(4-fluorophenyl)ethoxy]phenyl]-1-methyl-1H-pyrazolo[4,3-c]pyridin-7-yl}-1H-pyrazol-1-yl)piperidine-1-carboxylate] | 10 to 1000 | < 1000 | < 1000 |
| C[C@H](Oc1cc(-c2nn(C)c3c(-c4cnn(C5CCN(C(=O)[C@H]6C[C@H](N(C)c7ccc8c(c7)C(=O)N(C7CCC(=O)NC7=O)C8=O)C6)CC5)c4)cnc(N)c23)ccc1NS(=O)(=O)C(F)F)c1ccc(F)cc1 (stereo partly drawn) [Compound 1106, N-{4-[4-amino-1-methyl-7-(1-{1-[(trans)-3-{[2-(2,6-dioxopiperidin-3-yl)-1,3-dioxo-2,3-dihydro-1H-isoindol-5-yl](methyl)amino}cyclobutanecarbonyl]piperidin-4-yl}-1H-pyrazol-4-yl)-1H-pyrazolo[4,3-c]pyridin-3-yl]-2-[(1S)-1-(4-fluorophenyl)ethoxy]phenyl}-1,1-difluoromethanesulfonamide] | < 10 | < 1000 | < 1000 |
| C[C@H](Oc1cc(-c2nn(C)c3c(-c4cnn(C5CCN(CCN6CCCC(COc7cccc8c7C(=O)N(C7CCC(=O)NC7=O)C8=O)C6)CC5)c4)cnc(N)c23)ccc1NS(=O)(=O)C(F)F)c1ccc(F)cc1 (stereo partly drawn) [Compound 1132, N-(4-{4-amino-7-[1-(1-{2-[3-({[2-(2,6-dioxopiperidin-3-yl)-1,3-dioxo-2,3-dihydro-1H-isoindol-4-yl]oxy}methyl)piperidin-1-yl]ethyl}piperidin-4-yl)-1H-pyrazol-4-yl]-1-methyl-1H-pyrazolo[4,3-c]pyridin-3-yl}-2-[(1S)-1-(4-fluorophenyl)ethoxy]phenyl)-1,1-difluoromethanesulfonamide] | 10 to 1000 | < 1000 | < 1000 |
| C[C@H](Oc1cc(-c2nn(C)c3c(-c4cnn(C5CCC(C(=O)N6CC(Nc7cccc8c7C(=O)N(C7CCC(=O)NC7=O)C8=O)C6)CC5)c4)cnc(N)c23)ccc1NS(=O)(=O)C(F)F)c1ccc(F)cc1 (stereo partly drawn) [Compound 1133, N-[4-(4-amino-7-{1-[4-(3-{[2-(2,6-dioxopiperidin-3-yl)-1,3-dioxo-2,3-dihydro-1H-isoindol-4-yl]amino}azetidine-1-carbonyl)cyclohexyl]-1H-pyrazol-4-yl}-1-methyl-1H-pyrazolo[4,3-c]pyridin-3-yl}-2-[(1S)-1-(4-fluorophenyl)ethoxy]phenyl]-1,1-difluoromethanesulfonamide] | 10 to 1000 | < 1000 | 1000 to 10000 |
